{"source": "paper PMC3627040", "about": "“Methadone but not Morphine Inhibits Lubiprostone-Stimulated Cl^− Currents in T84 Intestinal Cells and Recombinant Human ClC-2, but not CFTR Cl^− Currents” (Cell Biochemistry and Biophysics, 2012)", "target": "T1, human ClC-2 (hClC-2) Cl^− channel (Homo sapiens, UniProt P51788)", "T1 construct": "gene CLCN2; recombinant hClC-2 stably expressed in HEK293EBNA cells", "T1 sequence (P51788 2-898)": "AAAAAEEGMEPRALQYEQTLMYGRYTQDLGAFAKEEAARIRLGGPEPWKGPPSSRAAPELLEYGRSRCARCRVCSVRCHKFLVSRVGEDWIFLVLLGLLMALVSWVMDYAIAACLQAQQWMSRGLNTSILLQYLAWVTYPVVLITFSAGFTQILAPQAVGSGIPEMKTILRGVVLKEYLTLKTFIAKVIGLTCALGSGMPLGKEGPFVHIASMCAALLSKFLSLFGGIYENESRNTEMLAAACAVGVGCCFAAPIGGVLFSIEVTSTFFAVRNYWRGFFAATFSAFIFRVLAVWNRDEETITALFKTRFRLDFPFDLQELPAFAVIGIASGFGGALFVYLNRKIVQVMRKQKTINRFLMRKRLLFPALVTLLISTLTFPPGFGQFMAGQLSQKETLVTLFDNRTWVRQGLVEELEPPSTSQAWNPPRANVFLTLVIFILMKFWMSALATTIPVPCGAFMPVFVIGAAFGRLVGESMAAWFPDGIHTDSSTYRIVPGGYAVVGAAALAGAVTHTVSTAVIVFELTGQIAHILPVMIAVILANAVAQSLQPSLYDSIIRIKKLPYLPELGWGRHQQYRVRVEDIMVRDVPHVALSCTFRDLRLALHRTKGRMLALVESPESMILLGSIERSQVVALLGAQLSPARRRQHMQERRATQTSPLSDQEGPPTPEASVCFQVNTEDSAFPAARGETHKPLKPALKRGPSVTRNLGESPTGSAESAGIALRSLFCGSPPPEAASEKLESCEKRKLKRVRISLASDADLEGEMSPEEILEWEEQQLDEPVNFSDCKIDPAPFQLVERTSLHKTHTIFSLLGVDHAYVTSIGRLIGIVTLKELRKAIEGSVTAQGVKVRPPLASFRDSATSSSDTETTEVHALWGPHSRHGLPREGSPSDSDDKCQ", "test": "whole cell patch clamp, activation of Cl- currents at -140 mV", "format": "cell-based"}
{"smiles": "CCCCC(F)(F)[C@@]1(O)CC[C@H]2[C@@H](CC(=O)[C@@H]2CCCCCCC(=O)O)O1", "note": "[Lubiprostone]", "values": [{"measurement": "EC50", "result": 28.2, "unit": "nM"}]}
